The target in assay [1] is recombinant Heliothis virescens PMCA. Description: PMCA activity assay, luciferase-luciferin luminescence measurement of remaining ATP. It is filed as biochemical. The procedure:
The assay for PMCA is based on the use of the luciferase-luciferin luminescence reaction to measure ATP. PMCA hydrolyzes ATP in the presence of Ca^2+and the ATP that remains is measured. Membrane vesicles from Sf9 cells expressing recombinant Heliothis virescens PMCA are provided with the assay.
The assay protocol is designed for a 384-well microtiter plate format, but other multi-well formats or other formats may also be used. The reaction is started by the addition of the PMCA enzyme. The negative control reactions contain eosin, an inhibitor of PMCA. Reaction mixtures are incubated at room temperature (22-24° C.) for 60 minutes, followed by the addition of the luciferase-luciferin mix. The plates are immediately read for luminescence.
The luciferin-luciferase readout measures the concentration of ATP in reaction mixtures. Light emission by the luciferase is proportional to the concentration of ATP when its value is less than 0.010 mM. PMCA consumes ATP in a Ca^2+-dependent hydrolysis reaction. […]
A volume of 0.005 mL of the HI solution increasing concentrations of eosin was placed in the wells of a 384-well microtiter plate, and a volume of 0.020 mL of the H2 solution was added. […] A volume of 0.035 mL of the H4 reaction mixture was then added to each well of the plate and the luminescence was measured. The decrease in relative light units (RLU) in reaction time t=60 minutes was measured. […]

The next assay relates to PMCA. Briefly: pyruvate kinase/lactate dehydrogenase-coupled assay that measures ADP formation. Format: biochemical, Heliothis virescens. As to conditions: fit to simple hyperbolic equation; decrease in absorbance at 340 nm; PMCA 0.20 mg/mL; FIG. 3; read-out: K1/2 for ATP, PMCA reaction rate. The method, then: The PMCA reaction rate is dependent on the ATP concentration. The K1/2 for ATP was measured using a pyruvate kinase/lactate dehydrogenase-coupled assay that measures ADP formation. The final concentrations of PMCA and ATP were […]. The rates of decrease in absorbance at 340 nm were measured for each concentration of ATP. The line gives the fit to a simple hyperbolic equation with K1/2=0.013 mM and amplitude=0.022 OD/min. Vmax =50.0 nmol.min^−1.mg^−1. was obtained for PMCA activity under the conditions described.

As usually defined, the IC50 is the concentration needed to halve the response being measured. Regarding `O=C1OC2(c3ccccc31)c1cc(Br)c(O)c(Br)c1Oc1c2cc(Br)c(O)c1Br` [eosin, reference compound], the 50% inhibitory concentration (IC50) in assay [1] (membrane vesicles from Sf9 cells, room temperature (22-24° C.), 60 minutes, FIG. 5, read-out: IC50 of inhibition of PMCA activity (rates of ATP consumption)) was 12 nM.

In the case of `Nc1ncnc2c1ncn2[C@@H]1O[C@H](COP(=O)(O)OP(=O)(O)OP(=O)(O)O)[C@@H](O)[C@H]1O` [ATP], in the assay on PMCA, the Km amounted to 13 µM. With `[Ca+2]` [Ca^2+], the “K1/2 for Ca2+, PMCA reaction rate” value in assay [1] (fit to simple hyperbolic equation, rates of decrease in RLU, ATP 0.010 mM, PMCA 0.010 mg/mL, FIG. 4) was 1.5 µM.

The values are drawn from patent US20060269938A1, “Polynucleotides encoding insect plasma membrane ca2+ ATPase and uses thereof” (priority 2005, published 2006).
